For 19 compounds, IC50 results are on record in patent US8901147B2, “Bi-heteroaryl compounds as Vps34 inhibitors” (Novartis AG, priority 2010, dated 2014).

For the test, the target named is recombinant human Vps34 (Homo sapiens, UniProt Q8NEB9). As to the kind of experiment: Vps34 KinaseGlo assay. In kind it is biochemical. Conditions: KinaseGlo luminescence ATP detection; PI/OG substrate; 1 μM ATP; room temperature; 8 concentrations, n=2. How it is done: It was then resuspended in 3% OctylGlucoside by vortexing and stored at 4° C. 5 μL of a mix of PI/OG with recombinant human Vps34 were added. Kinase reactions were started by addition of 5 μl of ATP-mix containing in a final volume 10 μL 10 mM TRIS-HCl pH 7.5, 3 mM MgCl2, 50 mM NaCl, 0.05% CHAPS, 1 mM DTT and 1 μM ATP, and occurred at room temperature. Reactions were stopped with 10 μl of KinaseGlo and plates were read 10 minutes later in a Synergy2 reader using an integration time of 0.1 seconds per well.
Chain of recombinant human Vps34 (Q8NEB9 whole entry): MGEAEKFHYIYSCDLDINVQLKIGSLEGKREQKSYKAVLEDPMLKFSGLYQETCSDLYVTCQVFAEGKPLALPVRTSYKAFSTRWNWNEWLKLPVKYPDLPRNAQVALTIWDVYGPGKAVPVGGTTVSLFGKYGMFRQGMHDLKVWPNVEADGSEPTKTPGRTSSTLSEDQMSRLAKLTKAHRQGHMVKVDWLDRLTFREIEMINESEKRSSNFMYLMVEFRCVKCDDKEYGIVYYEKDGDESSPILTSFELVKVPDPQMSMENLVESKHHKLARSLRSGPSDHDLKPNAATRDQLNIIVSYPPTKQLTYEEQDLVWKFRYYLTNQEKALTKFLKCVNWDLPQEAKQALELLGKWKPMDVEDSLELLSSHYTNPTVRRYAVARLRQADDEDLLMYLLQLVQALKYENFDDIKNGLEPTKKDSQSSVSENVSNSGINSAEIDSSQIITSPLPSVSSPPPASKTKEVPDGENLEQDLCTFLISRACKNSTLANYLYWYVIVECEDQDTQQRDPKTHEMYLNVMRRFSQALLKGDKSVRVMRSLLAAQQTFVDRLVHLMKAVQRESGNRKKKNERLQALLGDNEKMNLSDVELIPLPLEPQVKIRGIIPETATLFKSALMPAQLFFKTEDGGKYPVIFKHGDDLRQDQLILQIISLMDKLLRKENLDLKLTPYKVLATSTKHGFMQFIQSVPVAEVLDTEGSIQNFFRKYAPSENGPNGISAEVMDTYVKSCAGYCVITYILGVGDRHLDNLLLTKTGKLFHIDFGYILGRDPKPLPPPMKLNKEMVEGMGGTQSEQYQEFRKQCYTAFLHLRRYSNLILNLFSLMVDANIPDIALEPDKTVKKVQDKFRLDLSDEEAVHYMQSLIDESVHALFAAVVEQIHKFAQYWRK
In general terms: Kinase-Glo measures the ATP left after a reaction by luminescence.

Consider `CNc1ncc(-c2ccnc(NCCCN)n2)c(CC2CC2)n1` [Example 14s, N^2-(3-aminopropyl)-4′-(cyclopropylmethyl)-N^2′-methyl-4,5′-bipyrimidine-2,2′-diamine], for which the IC50 was 7130 nM. For `c1ccc(CNc2ncc(-c3ccnc(Nc4ccncc4)n3)c(CC3CC3)n2)cc1` [Example 10c, N^2′-benzyl-4′-(cyclopropylmethyl)-N^2-(pyridin-4-yl)-4,5′-bipyrimidine-2,2′-diamine] the value was 75.5 nM; for `CC(C)(O)CNc1ncc(-c2ccnc(Nc3ccncc3)n2)c(C(F)(F)F)n1` [Example 24, 2-methyl-1-(2-(pyridin-4-ylamino)-4′-(trifluoromethyl)-4,5′-bipyrimidin-2′-ylamino)propan-2-ol], 96 nM; for `CNc1ncc(-c2ccnc(N[C@H]3CC[C@H](NC(=O)OC(C)(C)C)CC3)n2)c(CC2CC2)n1` [Example 14i, tert-butyl (1r,4r)-4-(4′-(cyclopropylmethyl)-2′-(methylamino)-4,5′-bipyrimidin-2-ylamino)cyclohexylcarbamate], 348 nM. For `Nc1ncc(-c2ccnc(Nc3ccc4c(c3)OCO4)n2)c(CC2CC2)n1` [Example 15m, N^2-(benzo[d][1,3]dioxol-5-yl)-4′-(cyclopropylmethyl)-4,5′-bipyrimidine-2,2′-diamine] the value was 101 nM; for `Nc1ncc(-c2ccnc(Nc3ccc(F)cc3)n2)c(CC2CC2)n1` [Example 15j, 4′-(cyclopropylmethyl)-N^2-(4-fluorophenyl)-4,5′-bipyrimidine-2,2′-diamine], 53 nM. As for `c1cc(Nc2nccc(-c3cnc(NC4CC4)nc3CC3CC3)n2)ccn1` [Example 12c, N^2′-cyclopropyl-4′-(cyclopropylmethyl)-N^2-(pyridin-4-yl)-4,5′-bipyrimidine-2,2′-diamine], the IC50 turned out to be 45.5 nM. For `COc1ncc(-c2ccnc(NC3CCC(O)CC3)n2)c(CC2CC2)n1` (stereo not shown) [Example 6f, 4-(4′-(cyclopropylmethyl)-2′-methoxy-4,5′-bipyrimidin-2-ylamino)cyclohexanol] the value was 4000 nM; for `Nc1ncc(-c2ccnc(Nc3ccc(Cl)cc3)n2)c(CC2CC2)n1` [Example 15o, N^2-(4-chlorophenyl)-4′-(cyclopropylmethyl)-4,5′-bipyrimidine-2,2′-diamine], 57 nM. With `CC(C)(O)CNc1ncc(-c2ccnc(Nc3ccc(C#N)cc3)n2)c(C(F)(F)F)n1` [Example 25, 4-(2′-(2-hydroxy-2-methylpropylamino)-4′-(trifluoromethyl)-4,5′-bipyrimidin-2-ylamino)benzonitrile], the IC50 is 117 nM. As for `Nc1ncc(-c2ccnc(NCCN3CCOCC3)n2)c(CC2CC2)n1` [Example 15s, 4′-(cyclopropylmethyl)-N^2-(2-morpholinoethyl)-4,5′-bipyrimidine-2,2′-diamine], the IC50 turned out to be 1660 nM. For “(S)-1-[4′-Cyclopropylmethyl-2-(pyridin-4-ylamino)-[4,5]bipyrimidinyl-2′-ylamino]-propan-2-ol [Example 10k]” the value was 276 nM. For `CC(C)(O)CNc1ncc(-c2ccnc(Nc3ccc(Cl)cc3)n2)c(CC2CC2)n1` [Example 16e, 1-(2-(4-chlorophenylamino)-4′-(cyclopropylmethyl)-4,5′-bipyrimidin-2′-ylamino)-2-methylpropan-2-ol] the value was 105 nM; for `Nc1ncc(-c2ccnc(NCCc3c[nH]cn3)n2)c(CC2CC2)n1` [Example 15t, N^2-(2-(1H-imidazol-4-yl)ethyl)-4′-(cyclopropylmethyl)-4,5′-bipyrimidine-2,2′-diamine], 187 nM. The figure for `Nc1ncc(-c2ccnc(Nc3ccncc3)n2)c(C(F)(F)F)n1` [Example 22, N2-(pyridin-4-yl)-4′-(trifluoromethyl)-4,5′-bipyrimidine-2,2′-diamine] is 31 nM; for `Nc1ncc(-c2ccnc(NCc3cccnc3)n2)c(CC2CC2)n1` [Example 15q] it is 1290 nM. On to `CC(C)(O)CNc1ncc(-c2ccnc(Nc3ccc(F)cc3)n2)c(CC2CC2)n1` [Example 16c, 1-(4′-(cyclopropylmethyl)-2-(4-fluorophenylamino)-4,5′-bipyrimidin-2′-ylamino)-2-methylpropan-2-ol], for which the IC50 was 150 nM. For `Nc1ncc(-c2ccnc(Nc3nncs3)n2)c(CC2CC2)n1` [Example 15i, 4′-(cyclopropylmethyl)-N^2-(1,3,4-thiadiazol-2-yl)-4,5′-bipyrimidine-2,2′-diamine] the value was 924 nM; for `CNc1ncc(-c2ccnc(NC3CCCCC3)n2)c(CC2CC2)n1` [Example 14e, N^2-Cyclohexyl-4′-cyclopropylmethyl-N^2′-methyl-[4,5′]bipyrimidinyl-2,2′-diamine], 1100 nM.

As usually defined, the IC50 is the concentration needed to halve the response being measured.
